The source of these data is patent US5965434A, “Amphipathic PH sensitive compounds and delivery systems for delivering biologically active compounds” (priority 1994, dated 1999).

For data set [1] the following is noted: background; cited from earlier work.
A short description of data set [2]: pK by differential titration. The settings on record: 0.5% triton x-100. As for the experimental part:
4-5 μmoles of compounds 1, 4, 5, 6 or 8 in a chloroform solution were dried in separate 1.5 ml microcentrifuge tubes under a vacuum overnight. The dried compounds were dissolved in […] of a 0.5% water solution of Triton X-100, pH 3.5. A 20 mM NaOH solution was added to each tube using a Dilutor 401 (Gilson Co.) and the pH was monitored using a Beckman .phi. 72 pH meter. The pKa's of the compounds were determined from differential titration curves. The transfections of the 3T3 cells were done with liposome preparations containing Dioleoylphosphatidylcholine as described above.

The test system of another data set is 3T3 cells. The experiment in a line: Transfection of plasmid pBS.RSVLux into 3T3 cells, luciferase activity. Type of data set: cell-based, mouse. The settings on record: Table 13.
For data set [3] the following is noted: background; cited from earlier work. The source holds these as a separate data set.
Where [4] appears, read: Dioleoylphosphatidylcholine content 1:1.

Experimental for 3T3 cells: Liposomes were prepared by mixing chloroform solutions of the different lipids in microcentrifuge tubes with a 1.5 ml and removing the chloroform by vacuum to produce the dried lipid films. Tubes were placed under vacuum overnight to remove solvent traces. The amounts of cationic lipids in all cases were 1.34 mmol/ml with different amounts of other lipids as specified. One ml of sterile 10 mM HEPES buffer, pH 7.8, was added, and the tubes were sealed and vortexed for 1 min at room temperature and sonicated to obtain a clear emulsion.
The following cell lines were used: mouse 3T3 fibroblasts, COS cells (monkey kidney cell line transformed with the SV40 T ag), HeLa (human carcinoma cells), HepG2 (human hepatoma cell), 293 (monkey kidney cell line transformed with the adenovirus E1 gene ) were maintained in Dulbeco's Modified MEM media supplemented with 10% fetal calf serum. All cultures were maintained in a humidified atmosphere of 5% CO2 in air at 37° C. The cells were seeded in a 6-well plate (35 mm culture dishes) or a 12 well-plate (25 mm culture dishes) 24 h before the transfection at 70% confluence. Before transfection, the cells was washed once with Opti-MEM. In case of the 35 mm culture dishes, four μg of plasmid DNA (containing the luciferase or β-galactosidase reporter genes described below) in 0.75 ml of Opti-MEM was mixed with various amounts of liposomes in 0.75 ml of Opti-MEM. In case of the 25 mm culture dishes, one or two μg DNA in 400 μl of Opti-MEM was mixed with 400 μl of liposomes in 400 μl of Opti-MEM. The mixtures were incubated for 30 min at room temperature prior to being added to the cells in the culture dish. […]
The firefly luciferase and E. coli β-galactosidase reporter genes were used to determine the efficiency of DNA transfer quantitatively. […]
For determination of luciferase activity, cells were lysed by the addition of 100 ml for 25 mm plates and 200 μl for 35 mm plates of lysis buffer (0.1% Triton X-100, 0.1M K-phosphate, 1 mM DTT, pH 7.8). 20 μl of the cellular extract were analyzed for luciferase activity. […]

For the molecule `CCCCCCCCCCCCCCCC[N+](C)(C)C.[Br-]` [CTAB, cetyltrimethylammonium bromide], the Cytotoxicity entry in data set [1] was “significant cytotoxicity”.

With `CC(C)CCC[C@@H](C)[C@H]1CC[C@H]2[C@@H]3CC=C4C[C@@H](OC(=O)CCC[N+](C)(C)C)CC[C@]4(C)[C@H]3CC[C@]12C` [ChoTB, cholesteryl (4'-trimethylammonio)butanoate], the Cytotoxicity entry in data set [1] is recorded as “no evidence of reduced cytotoxicity”.

On to `CCCCCCCCCCCCCCCC(=O)OCC(CSc1nccn1C)OC(=O)CCCCCCCCCCCCCCC` (centres unmarked) [Compound 4], for which the pKa (in general, the pH at which an ionisable group is half protonated) in data set [2] was below 3.5.

As for `CC(C)CCC[C@@H](C)[C@H]1CC[C@H]2[C@@H]3CC=C4C[C@@H](SSCCN)CC[C@]4(C)[C@H]3CC[C@]12C` [Compound 5], the “Relative Transfection Efficiency (Lipofectin = 1.0)” value (“Relative Transfection Efficiency” below) in the data set on 3T3 cells (Dioleoylphosphatidylcholine content 1:2) turned out to be 0.84. The pKa in data set [2] stood at 6.8.

Regarding `CC(C)CCC[C@@H](C)[C@H]1CC[C@H]2[C@@H]3CC=C4C[C@@H](OC(=O)NCCCn5ccnc5)CC[C@]4(C)[C@H]3CC[C@]12C` [Compound 6], the “Relative Transfection Efficiency” value in the data set with 3T3 cells (setting [4]) worked out at 0.23. Further, the pKa in data set [2] came to 6.

For `CCCCCCCCCCCCCCCC(=O)OCC(CNc1ccncc1)OC(=O)CCCCCCCCCCCCCCC` (centres unmarked) [Compound 8], the “Relative Transfection Efficiency” value in the data set on 3T3 cells (setting [4]) amounted to 7.68. The molecule also showed a pKa in data set [2] of 5.3.

With `CCCCCCCC/C=C\CCCCCCCC(=O)OC[C@H](COC(=O)CCC(=O)OCC[N+](C)(C)C)OC(=O)CCCCCCC/C=C\CCCCCCCC` [DOSC, 1,2-dioleoyl-3-succinyl-sn-glycerol choline ester], the Cytotoxicity result in data set [1] is “no evidence of reduced cytotoxicity”.

As for `CCCCCCCC/C=C\CCCCCCCC(=O)OCC(C[N+](C)(C)C)OC(=O)CCCCCCC/C=C\CCCCCCCC` (centres unmarked) [DOTAP, 1,2-Bis(oleoyloxy)-3-(4'-trimethylammonio)propane], in data set [3], the “Inhibition of transfection by serum” value is “inhibits transfection to some extent”. In data set [1], the Cytotoxicity result is given as “no evidence of reduced cytotoxicity”.

In the case of `CCCCCCCC/C=C\CCCCCCCC(=O)OC[C@H](COC(=O)CCC[N+](C)(C)C)OC(=O)CCCCCCC/C=C\CCCCCCCC` [DOTB, 1,2-dioleoyl-3-(4'-trimethylammonio)butanoyl-sn-glycerol], the Cytotoxicity result in data set [1] is “no evidence of reduced cytotoxicity”.

For `CCCCCCCCCCCCCCCCCCN` [Stearylamine], the Cytotoxicity entry in data set [1] is recorded as “great cytotoxicity”.
